Data from patent US6605589B1, “Cathepsin inhibitors in cancer treatment” (Parker Hughes Institute, priority 2000, dated 2003).

Experiments:
Type in all cases: cell-based, human
[1] = system: BT-20 (breast cancer); experiment: In vitro clonogenic assay; conditions: 24 hours
Protocol: (§1) In vitro clonogenic assays were carried out to determine the cytotoxic activity of the cathepsin inhibitor I (CATI-1) (Z-Phe-Gly-NHO-Bz) against cancer cells. The cancer cell lines used in the assay were U373 (glioblastoma), BT-20 (breast cancer), SQ20B (squamous cell carcinoma), RS4;11 (pro-B ALL), ALL-1 (pre-pre-B ALL), KM-3, MOLT-3 (T-ALL), JURKAT (T-ALL), K-562 (CML), HL-60 (AML), DAUDI (NHL), RAMOS (NHL) and RAJI (NHL). Each cell line was treated under several concentrations of CATI-1 for 24 hours, washed with serum free medium and resuspended in clonogenic medium having 10% fetal bovine serum and 0.9% methylcellulose. Resuspended cells were plated in duplicate 35-mm Petri dishes at 10,000 to 20,000 cells per dish and cultured at 37° C. in a humidified 5% CO2 atmosphere for 5 to 7 days.
(§2) Images of colonies in each dish were taken by a digital camera (Princeton Instruments, Inc.) linked to a microscope (Nikon Diaphot 200). Colony numbers were determined using an inverted phase microscope and percent inhibition of colony formation determined using the formula:
(§3) % inhibition=(1−(colony number in test sample/colony number in control sample))×100.

[2] = system: DAUDI (NHL); experiment: In vitro clonogenic assay; conditions: CATI-1 10 uM, 24 hours
Protocol: as §1, §2, §3

[3] = system: JURKAT (T-ALL); experiment: In vitro clonogenic assay; conditions: for %, inhibition / Mean no, of colonies: 24 hours
Protocol: as §1, §2, §3

[4] = system: K-562 (CML); experiment: In vitro clonogenic assay; conditions: for %, inhibition / Mean no, of colonies: 24 hours
Protocol: as §1, §2, §3

[5] = system: MOLT-3 (T-ALL); experiment: In vitro clonogenic assay; conditions: for %, inhibition / Mean no, of colonies: 24 hours
Protocol: as §1, §2, §3

[6] = system: RAJI (NHL); experiment: In vitro clonogenic assay; conditions: for %, inhibition / Mean no, of colonies: 24 hours
Protocol: as §1, §2, §3

[7] = system: RS4;11 (pro-B ALL); experiment: In vitro clonogenic assay; conditions: for %, inhibition / Mean no, of colonies: 24 hours
Protocol: as §1, §2, §3

[8] = system: SQ20B (neck cancer); experiment: In vitro clonogenic assay; conditions: 24 hours
Protocol: as §1, §2, §3

[9] = system: U373 (brain tumor); experiment: In vitro clonogenic assay; conditions: 24 hours
Protocol: as §1, §2, §3

[10] = system: BT-20 (breast cancer); experiment: Quantitative flow cytometric apoptosis detection assay (MC540/PI); conditions: 0 to 100 μM, FIGS. 1-3
Protocol: (§4) Quantitative flow cytometric apoptosis detection assays were performed on BT-20 (breast cancer), PC-3 (prostate cancer), U373 (glioblastoma), SQ20B (squamous cell carcinoma), HeLa (cervix cancer), and DU145 (prostate cancer). Just prior to the assay, one mg/ml stock solutions of MC540 (Sigma, St. Louis, Mo.) and PI (Sigma, St. Louis, Mo.) were filtered through a 0.22 μm filter and stored at 4° C. in the dark. CATI-1 treated cell lines was harvested, and 1×10^6 cells suspended and stained with 5 μg/ml MC540 and 10 μg/ml propidium iodide (PI) (Uckun et al. (1996) Science, 273: 1096-1100) at 4° C. in the dark for 24 hours. Stained cells were analyzed with a FACStar Plus flow cytometer (Becton Dickinson, San Jose, Calif.) using the 488-nm excitation from an argon laser. MC540 and PI emissions were split with a 600-nm short pass diachronic mirror; a 575-nm band pass filter was placed in front of one photomultiplier tube to measure MC540 emission, and 635-nm band pass filter was used for PI emission. In each experiment approximately 10,000 cells were analyzed by FACS and the percentage of cells at early (MC540 fluorescence only) and advanced (dual MC540 plus PI fluorescence) stages of apoptosis obtained.

[11] = system: DU145 (prostate cancer); experiment: as above; conditions: 0 to 100 μM, FIGS. 1-3
Protocol: as §4

[12] = system: HeLa (cervix cancer); experiment: as above; conditions: 0 to 100 μM, FIGS. 1-3
Protocol: as §4

[13] = system: PC-3 (prostate cancer); experiment: as above; conditions: 0 to 100 μM, FIGS. 1-3
Protocol: as §4

[14] = system: SQ20B (squamous cell carcinoma); experiment: as above; conditions: 0 to 100 μM, FIGS. 1-3
Protocol: as §4

[15] = system: U373 (glioblastoma); experiment: as above; conditions: 0 to 100 μM, FIGS. 1-3
Protocol: as §4

[16] = system: K562 cells; experiment: Flow cytometric apoptosis detection in p53 deficient cells; conditions: K-562, p53 deficient
Protocol: as §4
(§5) Effects of CATI-1 were investigated on a lung squamous carcinoma cell line, NCI-H520 cells, and a chronic myeloid leukemia cell line, K562 cells.

[17] = system: NCI-H520 cells; experiment: as above
Protocol: as §4, §5

[18] = system: all tested cancer cell lines; experiment: Cytometric apoptosis detection assays, FIG. 2; conditions: FIG. 2 (SQ-20B, HeLa, PC-3, BT-20)
Protocol: The percentages indicate the fraction of cells at an early stage of apoptosis (lower right quadrant), as measured by single MC540 fluorescence, and the fraction of cells at an advanced stage of apoptosis (upper right quadrant).
as §4, with “MC540 and PI emissions were split with a 600-nm short pass diachronic mirror; a 575-nm band pass filter was placed in front of one photomultiplier tube to measure MC540 emission, and 635-nm band pass filter was used for PI emission.” left out

[19] = read-out: IC50 (colony formation)

**Q.** Which results are given for O=C(CNC(=O)[C@H](Cc1ccccc1)NC(=O)OCc1ccccc1)NOC(=O)c1ccccc1 [CATI-1, Z-Phe-Gly-NHO-Bz]?
**A.** %, inhibition ([1]; CATI-1 50 uM): 95%; Mean no, of colonies ([1]; CATI-1 50 uM): 177 (154, 200); %, inhibition ([1]; CATI-1 100 uM): 100%; Mean no, of colonies ([1]; CATI-1 100 uM): 0; %, inhibition [2]: 100%; Mean no, of colonies [2]: 0 (0, 0); %, inhibition ([3]; CATI-1 10 uM): 10.0%; Mean no, of colonies ([3]; CATI-1 10 uM): 5110 (5260, 4960); %, inhibition ([3]; CATI-1 20 uM): 98.9%; Mean no, of colonies ([3]; CATI-1 20 uM): 64 (40, 88); %, inhibition ([3]; CATI-1 35 uM): 100%; Mean no, of colonies ([3]; CATI-1 35 uM): 0 (0, 0); IC50 [3, 19]: 14.5 µM; %, inhibition ([4]; CATI-1 10 uM): 19.0%; Mean no, of colonies ([4]; CATI-1 10 uM): 3806 (3980, 3632); %, inhibition ([4]; CATI-1 20 uM): 76.9%; Mean no, of colonies ([4]; CATI-1 20 uM): 1086 (1196, 976); %, inhibition ([4]; CATI-1 35 uM): 99.8%; Mean no, of colonies ([4]; CATI-1 35 uM): 10 (12, 8); IC50 [4, 19]: 15.4 µM; %, inhibition ([5]; CATI-1 10 uM): 90.8%; Mean no, of colonies ([5]; CATI-1 10 uM): 194 (124, 264); %, inhibition ([5]; CATI-1 20 uM): 99.1%; Mean no, of colonies ([5]; CATI-1 20 uM): 18 (16, 20); %, inhibition ([5]; CATI-1 35 uM): 100%; Mean no, of colonies ([5]; CATI-1 35 uM): 0 (0, 0); IC50 [5, 19]: 5.5 µM; %, inhibition ([6]; CATI-1 10 uM): 86.5%; Mean no, of colonies ([6]; CATI-1 10 uM): 168 (124, 212); %, inhibition ([6]; CATI-1 20 uM): 97.4%; Mean no, of colonies ([6]; CATI-1 20 uM): 32 (40, 24); %, inhibition ([6]; CATI-1 35 uM): 100%; Mean no, of colonies ([6]; CATI-1 35 uM): 0 (0, 0); IC50 [6, 19]: 5.8 µM; %, inhibition ([7]; CATI-1 10 uM): 10.6%; Mean no, of colonies ([7]; CATI-1 10 uM): 2676 (2160, 3192); %, inhibition ([7]; CATI-1 20 uM): 96.8%; Mean no, of colonies ([7]; CATI-1 20 uM): 96 (116, 76); %, inhibition ([7]; CATI-1 35 uM): 100%; Mean no, of colonies ([7]; CATI-1 35 uM): 0 (0, 0); IC50 [7, 19]: 14.6 µM; %, inhibition ([8]; CATI-1 50 uM): 40%; Mean no, of colonies ([8]; CATI-1 50 uM): 1838 (1732, 1944); %, inhibition ([8]; CATI-1 100 uM): 90%; Mean no, of colonies ([8]; CATI-1 100 uM): 306 (280, 332); %, inhibition ([9]; CATI-1 30 uM): 97%; Mean no, of colonies ([9]; CATI-1 30 uM): 76 (84, 67); %, inhibition ([9]; CATI-1 50 uM): 100%; Mean no, of colonies ([9]; CATI-1 50 uM): 0; induction of apoptosis [10]: induces apoptosis; induction of apoptosis [11]: induces apoptosis; induction of apoptosis [12]: induces apoptosis; induction of apoptosis [13]: induces apoptosis; induction of apoptosis [14]: induces apoptosis; induction of apoptosis [15]: induces apoptosis; EC50 [16]: ~20 µM; EC50 [17]: 55 µM; induction of apoptosis [18]: induced apoptosis
